Results reported in US6492414B1, “Methods and compositions for the treatment and prevention of lung disease” (Allergan, Inc., priority 1999, dated 2002).

What was measured:
RARγ = target: T1, RARγ (Homo sapiens, UniProt P13631); experiment: RAR isotype activity stated for the retinoid ligand (RARγ)
T1 sequence (P13631 1-454): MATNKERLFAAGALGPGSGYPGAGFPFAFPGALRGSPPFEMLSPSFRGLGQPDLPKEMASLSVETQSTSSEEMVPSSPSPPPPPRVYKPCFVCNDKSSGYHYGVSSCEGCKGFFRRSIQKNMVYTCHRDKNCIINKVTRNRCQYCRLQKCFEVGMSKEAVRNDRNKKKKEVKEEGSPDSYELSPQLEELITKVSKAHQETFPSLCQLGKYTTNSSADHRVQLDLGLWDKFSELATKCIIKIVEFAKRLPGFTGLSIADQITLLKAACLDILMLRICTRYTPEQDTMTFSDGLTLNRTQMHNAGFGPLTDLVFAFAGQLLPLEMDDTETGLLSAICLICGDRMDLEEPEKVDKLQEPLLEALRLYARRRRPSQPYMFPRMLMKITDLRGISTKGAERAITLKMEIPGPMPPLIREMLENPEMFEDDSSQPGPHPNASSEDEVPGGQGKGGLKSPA

RARβ = experiment: RAR isotype activity stated for the retinoid ligand (RARβ)
Sprague-Dawley rat pups = experiment: Alveolus formation (septation) in newborn rat pups, daily intraperitoneal injection, lung histology and morphometry; format: in vivo
Description: This retinoid, termed AGN 193174, has a structure defined by the formula [drawing 1]
Following sacrifice, rat lungs were fixed and histological sections prepared essentially as described in Massaro et al., Am. J. Physiol. 270: L305 (1996), incorporated by reference herein. The histological sections were viewed and photographs taken under light microscopy.
The differences in alveolar dimensions between =treated and untreated rat pups were so pronounced, they were quantitated by measuring the distance between alveolar walls (Lm) and the surface-to-volume ratio (S/V) of the gas-exchange structures (septa). The Lm in cottonseed oil-treated rats was 80 μm±2.8 μm (N=4) compared to 110 μm±7.3 μm (N=3) in RARβ agonist-treated rats (N=3; P=0.03 by Mann Whitney nonparametric analysis). The S/V was 504 μm^−1±18 μm^−1(N=4) in cottonseed oil-treated rats compared to 365 μm^−1±23 μm^−1(N=3) in RARβ agonist-treated rats (P=0.03).

RAR receptors = experiment: Receptor class specificity, RAR versus RXR
all RAR isotypes = settings: cited from earlier work
[1] = test system: rats treated with elastase; settings: cited from earlier work
newborn rats = settings: cited from earlier work

SMILES | activity at RARγ (RARγ) | activity at RARβ (agonist) (RARβ) | activity at RARβ (antagonist (so in the source)) (RARβ) | alveolar size and degree of septation in histological sections versus cottonseed oil alone (Sprague-Dawley rat pups; age 14 days, treated daily from age 3 through 13 days, FIGS. 1A and 1B) | Lung volume versus cottonseed oil-treated rats (Sprague-Dawley rat pups; rat pups, 500 micrograms per kg i.p. daily from age 3 to 13 days) | specificity RAR versus RXR receptors (RAR receptors) | agonist activity at RAR isotypes (all RAR isotypes) | effect on elastase-induced destruction of alveolar walls [1] | effect on number of alveoli (newborn rats)
CC1(C)CC=C(c2cccs2)c2cc(C#Cc3ccc(C(=O)O)cc3)ccc21 [AGN 193174] | antagonist activity | RARβ agonist activity | antagonist activity | alveoli were larger, and the degree of sepatation less | the same in both rat groups | specific to RAR receptors and not to RXR receptors |  |  | 
CC1=C(/C=C/C(C)=C/C=C/C(C)=C/C(=O)O)C(C)(C)CCC1 [ATRA, all-trans-retinoic acid] |  |  |  |  |  |  | an agonist of all RAR isotypes | appeared to reverse this destruction | induced the formation of an increased number of alveoli in rats without enlarging the lung
